Source: ChEMBL document CHEMBL1124500, “New cyclic peptides with cytotoxic activity from the ascidian Lissoclinum patella” (J Med Chem, 1989)
Converted amounts (≈) assume the structure as drawn.

Experiments:
Type in all cases: functional, cell-based
L1210 [1] = assay: Concentration required to cause 50% inhibition against murine leukemia L1210 cell line; 2-4 ug/mL; conditions: Mus musculus
L1210 [2] = assay: Concentration required to cause 50% inhibition against murine leukemia L1210 cell line; conditions: Mus musculus
MRC5CV1 [3] = assay: Cytotoxicity of compound was evaluated by incorporation of [methyl-3H]thymidine into MRC5CV1, a control fibroblast cell line, for 1 hr exposure; conditions: Homo sapiens, MRC5CV1, 1 h
T-24 [4] = assay: Cytotoxicity of compound was evaluated by incorporation of [methyl-3H]thymidine into T24, a bladder carcinoma cell line, continuous exposure; conditions: Homo sapiens
T-24 [5] = assay: Cytotoxicity of compound was evaluated by incorporation of [methyl-3H]thymidine into T24, a bladder carcinoma cell line, for 1 hr exposure; conditions: Homo sapiens, T-24, 1 h
MRC5CV1 [6] = assay: Cytotoxicity of compound was evaluated by incorporation of [methyl-3H]thymidine into MRC5CV1, a control fibroblast cell line, continuous exposure; conditions: Homo sapiens
CCRF-CEM = assay: Concentration required to cause 50% inhibition against human CEM cell lines

Q: `CC[C@H](C)[C@@H]1NC(=O)c2csc(n2)[C@@H](C(C)C)NC(=O)[C@H]2N=C(O[C@@H]2C)[C@H]([C@@H](C)CC)NC(=O)c2csc(n2)[C@@H](C(C)C)NC(=O)[C@@H]2COC1=N2` [PATELLAMIDE A] was tested. Which IC50 (L1210 [1]) did it give?
A: 2 µg/mL (≈ 2.69 µM)

Q: Which IC50 (L1210 [2]) does the source give for `CC[C@@H](C)[C@H]1NC(=O)[C@H]2N=C(O[C@@H]2C)[C@@H]2CCCN2C(=O)[C@H](Cc2ccccc2)NC(=O)c2csc(n2)[C@@H](C)NC(=O)C2CSC1=N2` [LISSOCLINAMIDE 2] here?
A: > 10 µg/mL

Q: With `CC[C@H](C)[C@@H]1NC(=O)c2csc(n2)[C@@H](C)NC(=O)[C@H]2N=C(O[C@@H]2C)[C@H](CC(C)C)NC(=O)c2csc(n2)[C@@H](Cc2ccccc2)NC(=O)[C@H]2N=C1O[C@@H]2C` [PATELLAMIDE B] as the compound, how does the IC50 (L1210 [1]) read?
A: 2 µg/mL (≈ 2.57 µM)

Q: What does the source list for `CC(C)C[C@H]1NC(=O)[C@H]2N=C(O[C@@H]2C)[C@H]2CSSC[C@@H](NC(=O)c3csc1n3)C1=N[C@H](C(=O)N[C@H](CC(C)C)c3nc(cs3)C(=O)N2)[C@@H](C)O1` [ULITHIACYCLAMIDE]?
A: IC50 (MRC5CV1 [3]): 0.22 µg/mL (≈ 0.288 µM); IC50 (T-24 [4]): 0.1 µg/mL (≈ 0.131 µM); IC50 (L1210 [2]): 0.35 µg/mL (≈ 0.459 µM); IC50 (T-24 [5]): 0.15 µg/mL (≈ 0.197 µM); IC50 (MRC5CV1 [6]): 0.04 µg/mL (≈ 0.0524 µM); IC50 (CCRF-CEM): 0.01 µg/mL (≈ 0.0131 µM)

Q: With `CC(C)[C@@H]1NC(=O)[C@H]2N=C(O[C@@H]2C)[C@@H]2CCCN2C(=O)[C@H](Cc2ccccc2)NC(=O)c2csc(n2)[C@H](Cc2ccccc2)NC(=O)[C@H]2CSC1=N2` as the compound, how does the IC50 (L1210 [2]) read?
A: 0.8 µg/mL (≈ 1.08 µM)

Q: `CC[C@H](C)[C@@H]1NC(=O)c2csc(n2)[C@@H](C)NC(=O)[C@H]2N=C(O[C@@H]2C)[C@H](C(C)C)NC(=O)c2csc(n2)[C@@H](Cc2ccccc2)NC(=O)[C@H]2N=C1O[C@@H]2C` [PATELLAMIDE C] was tested. Which IC50 (L1210 [1]) did it give?
A: 2 µg/mL (≈ 2.62 µM)

Q: For `CC[C@@H](C)[C@H]1NC(=O)[C@H]2N=C(O[C@@H]2C)[C@@H]2CCCN2C(=O)[C@H](Cc2ccccc2)NC(=O)c2csc(n2)[C@H](C)NC(=O)C2CSC1=N2` [LISSOCLINAMIDE 3], which IC50 (L1210 [2]) is on record?
A: > 10 µg/mL

Q: How did the IC50 (L1210 [2]) turn out when `CC[C@@H](C)[C@H]1NC(=O)c2csc(n2)[C@H](C(C)C)NC(=O)[C@H]2N=C(O[C@@H]2C)[C@@H]2CCCN2C(=O)[C@H](Cc2ccccc2)NC(=O)c2csc1n2` [LISSOCLINAMIDE 1] was run?
A: > 10 µg/mL
